The source of these data is patent publication US20240208959A1, “THIAZOLE/ISOTHIAZOLE HSD17B13 INHIBITORS AND USES THEREOF” (INIPHARM, INC., priority 2021, published 2024).

Each structure is given as a SMILES string.

The experiment addresses T1, HSD17B13 enzyme (Homo sapiens, UniProt Q7Z5P4).
T1 construct: His; made in house; host or cells: E. coli
T1 sequence (Q7Z5P4 20-300): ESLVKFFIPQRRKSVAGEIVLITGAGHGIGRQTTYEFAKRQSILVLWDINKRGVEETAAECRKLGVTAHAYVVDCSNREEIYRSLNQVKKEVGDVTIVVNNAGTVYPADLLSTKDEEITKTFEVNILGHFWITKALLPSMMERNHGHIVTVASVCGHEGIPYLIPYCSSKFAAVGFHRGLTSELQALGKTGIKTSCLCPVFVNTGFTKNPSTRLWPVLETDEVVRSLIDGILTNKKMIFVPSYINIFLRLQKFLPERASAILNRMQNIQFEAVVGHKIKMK
In words: LC/MS estrone detection assay: conversion of estradiol to estrone by HSD17B13. The following applies: 4 μM Estradiol, 6mM NAD, 30 nM HSD17B13 enzyme (E. coli expressed His-tagged), 2 hours at 26.5° C. In kind it is biochemical. As for the experimental part:
Example A: Estrone Detection Assay for Evaluation of HSD17β13 Activity and Identification of Inhibitors
The liquid chromatography/mass spectrometry (LC/MS) estrone detection assay monitors the conversion of estradiol to estrone by HSD17B13. This assay was undertaken in a 96wp format (Eppendorf deep well Plate 96/500) in an 80 μl reaction volume containing: 4 μM of Estradiol (E2: Cayman: #10006315), 6mM NAD (Sigma: #N0623) and 30 nM HSD17B13 enzyme (in-house: E. coli expressed His-tagged, purified, soluble protein) in a reaction containing […] potassium phosphate buffer pH 7.4, with 0.5% vehicle (DMSO). Reactions were incubated for 2 hours at 26.5° C., and estradiol (E2) conversion to estrone (E1) was quantitated by LC-MS/MS based analyte detection for both E2 and E1 using LCMS grade reagents.
Reactions were terminated by the addition of two volumes of acetonitrile (MeCN: LCMS grade: CAS #75/05/8) containing deuterated (D4)-E1 used as internal standard (Clear Synth: #CS-T-54273: 500 ng/mL final concentration). Samples were applied to pre-prepared Bond Elut-C18 extraction cartridges (3 mL: Agilent: #12102028), washed and eluted in MeCN. Eluates were dried under nitrogen and re-suspended in 60% methanol (LCMS grade methanol: CAS #67/56/1) before submission for analysis. Aqueous linearity for E2 and E1 were included for quantification.
Analysis of samples was undertaken on a XBridge BEH C18 column (Waters: #186003033) using 0.1% Diethyl Amine in MeCN (mobile phase A: DEA CAS #109-89-7) and 0.1% Diethyl Amine in milli-Q water (mobile phase B) in a 3 min gradient allowing 25% B. Analytes were detected in negative mode using MRM analysis, with E2 having a RT of 1.85 min and E1 having a RT of 2 min Activity of the enzyme, in the absence of NAD′, was used to evaluate specificity of conversion. Enzyme activity in the presence of test samples was expressed as a percentage of the uninhibited enzyme activity, and plotted versus inhibitor concentration. Non-linear regression was performed using a four-parameter logistic model and GraphPad Prism software (GraphPad Software, La Jolla, CA). All assessments were undertaken in duplicate evaluations and pooled during extraction process and subsequently injected as duplicates for LC-MS/MS analysis.
With `O=C(Nc1scnc1C(=O)NC(CO)c1ccccc1)c1ccc(O)c(Cl)c1` (stereo in doubt) [Example 6, (R)-5-(3-chloro-4-hydroxybenzamido)-N-(2-hydroxy-1-phenylethyl)thiazole-4-carboxamide], the IC50 is not above 100 nM.
For `COC(=O)C(NC(=O)c1scnc1NC(=O)c1ccc(O)c(Cl)c1)c1ccccc1` (stereo in doubt) [Example 7, methyl (R)-2-(4-(3-chloro-4-hydroxybenzamido)thiazole-5-carboxamido)-2-phenylacetate], the IC50 is 100 to 500 nM.
For the compound `O=C(Nc1ncsc1C(=O)NC(C(=O)O)c1ccccc1)c1ccc(O)c(Cl)c1` (stereo in doubt) [Example 8, (R)-2-(4-(3-chloro-4-hydroxybenzamido)thiazole-5-carboxamido)-2-phenylacetic Acid], the IC50 was in the range of 1000 to 10000 nM.
Consider `O=C(Nc1ncsc1C(=O)NCCc1ccccc1C(F)(F)F)c1ccc(O)c(C(F)(F)F)n1` [Example 1, 4-(5-hydroxy-6-(trifluoromethyl)picolinamido)-N-(2-(trifluoromethyl)phenethyl)thiazole-5-carboxamide], for which the IC50 is 100 to 500 nM.
In turn, `O=C(Nc1ncsc1C(=O)NCCc1ccccc1F)c1ccc(O)c(C(F)(F)F)n1` [Example 2, N-(2-fluorophenethyl)-4-(5-hydroxy-6-(trifluoromethyl)picolinamido)thiazole-5-carboxamide] gave an IC50 of 100 to 500 nM.
`CC(C)(C)CCNC(=O)c1scnc1NC(=O)c1ccc(O)c(C(F)(F)F)n1` [Example 3, N-(3,3-dimethylbutyl)-4-(5-hydroxy-6-(trifluoromethyl)picolinamido)thiazole-5-carboxamide] registered an IC50 of 500 to 1000 nM.
`O=C(Nc1ncsc1C(=O)NCc1ccccc1C(F)(F)F)c1cc(F)c(O)c(F)c1` [Example 4, 4-(3,5-difluoro-4-hydroxybenzamido)-N-(2-(trifluoromethyl)benzyl)thiazole-5-carboxamide] returned an IC50 not above 100 nM.
Compound `Cc1nsc(NC(=O)c2ccc(O)c(Cl)c2)c1C(=O)NCCC(C)(C)C` [Example 5, 5-(3-chloro-4-hydroxybenzamido)-N-(3,3-dimethylbutyl)-3-methylisothiazole-4-carboxamide] gave a concentration for half-maximal inhibition (IC50) not above 100 nM.
In the case of `O=C(Nc1ncsc1C(=O)NCc1ccccc1C(F)(F)F)c1cc(F)c(O)c(Cl)c1` [Example 9, 4-(3-chloro-5-fluoro-4-hydroxybenzamido)-N-{[2-(trifluoromethyl)phenyl]methyl}-1,3-thiazole-5-carboxamide], the IC50 is not above 100 nM.
Compound `O=C(Nc1ncsc1C(=O)NCc1ccccc1F)c1cc(F)c(O)c(Cl)c1` [Example 10, 4-(3-chloro-5-fluoro-4-hydroxybenzamido)-N-(2-fluorobenzyl)thiazole-5-carboxamide] registered an IC50 of 100 to 500 nM.
For `O=C(Nc1ncsc1C(=O)NCc1ccccc1OC(F)(F)F)c1cc(F)c(O)c(Cl)c1` [Example 11, 4-(3-chloro-5-fluoro-4-hydroxybenzamido)-N-(2-(trifluoromethoxy)benzyl)thiazole-5-carboxamide], the IC50 lay in the range of 100 to 500 nM.
As to `COc1ccccc1CCNC(=O)c1nc(C)sc1NC(=O)c1ccc(O)c(Cl)c1` [Example 12, 5-(3-chloro-4-hydroxybenzamido)-N-(2-methoxyphenethyl)-2-methylthiazole-4-carboxamide], the IC50 was not above 100 nM.
Compound `O=C(Nc1scnc1C(=O)NCc1ccccc1OC(F)(F)F)c1cc(Cl)c(=O)[nH]n1` [Example 13, 5-(5-chloro-6-oxo-1,6-dihydropyridazine-3-carboxamido)-N-(2-(trifluoromethoxy)benzyl)thiazole-4-carboxamide] came in with an IC50 of 500 to 1000 nM.
Turning to `CC(C)c1cc(C(=O)Nc2scnc2C(=O)NCc2ccccc2OC(F)(F)F)n[nH]c1=O` [Example 14, 5-(5-isopropyl-6-oxo-1,6-dihydropyridazine-3-carboxamido)-N-(2-(trifluoromethoxy)benzyl)thiazole-4-carboxamide], the IC50 was more than 10000 nM.
As for `O=C(Nc1scnc1C(=O)NCc1ccccc1OC(F)(F)F)c1ccc(=O)[nH]n1` [Example 15, 5-(6-oxo-1,6-dihydropyridazine-3-carboxamido)-N-(2-(trifluoromethoxy)benzyl)thiazole-4-carboxamide], the IC50 was more than 10000 nM.
For `O=C(Nc1scnc1C(=O)NCc1ccccc1OC(F)(F)F)c1c[nH]c(=O)cn1` [Example 16, 5-(5-oxo-4,5-dihydropyrazine-2-carboxamido)-N-(2-(trifluoromethoxy)benzyl)thiazole-4-carboxamide] the value was more than 10000 nM.
